In patent US12060349B2, “Glucosylceramide synthase inhibitors” (Genzyme Corporation, priority 2012, dated 2024):
Read-outs that look alike come from different tables or passages of the source.

Legend:
[1] = target: T1, glucosylceramide synthase (Homo sapiens, UniProt Q16739); assay: microsomal assay measuring conversion of ceramide to glucosylceramide by HPLC (GCS IC50); assay type: biochemical; conditions: concentration causing 50% inhibition of glucosylceramide synthase activity
T1 construct: Microsomes were isolated from A375 human melanoma cells; endogenous in cells; host or cells: A375 human melanoma cells (microsomal fraction, 100,000 g pellet)
T1 sequence (Q16739 1-394): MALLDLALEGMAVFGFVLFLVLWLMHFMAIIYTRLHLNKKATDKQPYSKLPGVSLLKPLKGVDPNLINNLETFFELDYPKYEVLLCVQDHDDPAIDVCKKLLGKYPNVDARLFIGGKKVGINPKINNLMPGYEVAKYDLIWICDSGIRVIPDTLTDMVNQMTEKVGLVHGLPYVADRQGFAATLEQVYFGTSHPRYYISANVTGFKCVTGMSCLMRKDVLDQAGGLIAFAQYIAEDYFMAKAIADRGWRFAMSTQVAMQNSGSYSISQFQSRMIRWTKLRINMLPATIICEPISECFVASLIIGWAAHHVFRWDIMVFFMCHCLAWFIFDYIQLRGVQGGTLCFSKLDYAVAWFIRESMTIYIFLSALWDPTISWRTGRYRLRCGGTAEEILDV
Outline: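 IC50 is the compound concentration halving glucosylceramide synthase activity. Activity was measured in microsomes, with HPLC quantifying glucosylceramide formed from ceramide.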

[2] = tested on: C32 human melanoma cells; assay: cell viability in the C32 cell-based assay (Viability, C32 IC50); conditions: Homo sapiens, concentration causing 50% cell death, values greater than 10 represent a lack of cell death
Outline: (§1)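 Cell death was scored within the cell-based GM3 experiment for each line. The viability value is the concentration producing 50% death, and numbers exceeding 10 signify no cytotoxicity.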

[3] = tested on: GM3 expression on the cell surface, C32 human melanoma cells; assay: cell based phenotypic assay, cell surface GM3 by antibody mediated immunofluorescence, C32 (GM3 C32 IC50); conditions: Homo sapiens, 50% inhibition of GM3 expression on the cell surface
Outline: (§2)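 Two melanoma lines, mouse B16 and human C32, were treated and surface GM3 quantified by antibody immunofluorescence for IC50. A parallel viability readout gives the concentration killing 50% of cells, with values over 10 indicating no cell death.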

[4] = tested on: GM3 expression on the cell surface, B16 mouse melanoma cells; assay: cell based phenotypic assay, cell surface GM3 by antibody mediated immunofluorescence, B16 (GM3 B16 IC50); conditions: Mus musculus, 50% inhibition of GM3 expression on the cell surface
Outline: as §2

[5] = tested on: B16 mouse melanoma cells; assay: cell viability in the B16 cell-based assay (Viability, B16 IC50); conditions: Mus musculus
Outline: as §1

[6] = C32, C32 cells, read-out: Viability, C32 IC50
[7] = C32 human melanoma cells, read-out: GM3 C32 IC50
[8] = B16 mouse melanoma cells, read-out: GM3 B16 IC50
[9] = B16, B16 cells, concentration causing 50% cell death, values greater than 10 represent a lack of cell death, read-out: Viability, B16 IC50
[10] = C32, read-out: Viability, C32 IC50, C32 cells
[11] = read-out: GM3 C32 IC50, C32 human melanoma cells
[12] = read-out: GM3 B16 IC50, B16 mouse melanoma cells
[13] = B16, read-out: Viability, B16 IC50

| SMILES | IC50 [1] [nM] | IC50 [2, 6] [nM] | IC50 [3, 7] [nM] | IC50 [4, 8] [nM] | IC50 [5, 9] [nM] | IC50 [2, 10] [nM] | IC50 [3, 11] [nM] | IC50 [4, 12] [nM] | IC50 [5, 13] [nM] |
| --- | --- | --- | --- | --- | --- | --- | --- | --- | --- |
| CC(C)(NC(=O)NC1(C)CCN2CCC1CC2)c1ccc(-c2ccc(N3CCOCC3)cc2)cc1 (stereo not shown) [Example 233, 1-(4-Methyl-1-azabicyclo[3.2.2]nonan-4-yl)-3-(2-(4′-morpholino-[1,1′-biphenyl]-4-yl)propan-2-yl)urea] | 5.68 | 1000 | 0.726 | 5.51 | 1000 |  |  |  |  |
| CCC1(NC(=O)NC(C)(C)c2ccc(-c3ccc(N4CCOCC4)cc3)cc2)CN2CCC1CC2 (stereo not shown) [Example 234, 1-(3-Ethylquinuclidin-3-yl)-3-(2-(4′-morpholino-[1,1′-biphenyl]-4-yl)propan-2-yl)urea] | 14.6 | 1000 | 1.81 | 32.6 | 1000 |  |  |  |  |
| CC(C)(NC(=O)OC1CN2CCC1CC2)c1ccc(-c2ccc(S(C)(=O)=O)cc2)cc1 (stereo not shown) [Example 235, Quinuclidin-3-yl (2-(4′-(methylsulfonyl)-[1,1′-biphenyl]-4-yl)propan-2-yl)carbamate] | 111 |  |  |  |  | ≥ 10000 | 19.9 | 118 | ≥ 10000 |
| CCC1(NC(=O)NC(C)(C)c2ccc(-c3ccc(S(C)(=O)=O)cc3)cc2)CN2CCC1CC2 (stereo not shown) [Example 236, 1-(3-Ethylquinuclidin-3-yl)-3-(2-(4′-(methylsulfonyl)-[1,1′-biphenyl]-4-yl)propan-2-yl)urea] | 53.8 | ≥ 10000 | 9.46 | 74.4 | ≥ 10000 |  |  |  |  |
| CCCC1(NC(=O)NC(C)(C)c2ccc(-c3ccc(S(C)(=O)=O)cc3)cc2)CN2CCC1CC2 (stereo not shown) [Example 237, 1-(2-(4′-(Methylsulfonyl)-[1,1′-biphenyl]-4-yl)propan-2-yl)-3-(3-propylquinuclidin-3-yl)urea] | 35.4 | ≥ 10000 | 6.71 | 32.9 | ≥ 10000 |  |  |  |  |
| CC(C)(NC(=O)OC1CN2CCC1CC2)c1ccc(-c2ccc(S(=O)(=O)CC3CC3)cc2)cc1 (stereo not shown) [Example 238, Quinuclidin-3-yl (2-(4′-((cyclopropylmethyl)sulfonyl)-[1,1′-biphenyl]-4-yl)propan-2-yl)carbamate] | 15.4 |  |  |  |  | 1000 | 4.45 | 50.1 | ≥ 10000 |
| CCC1(NC(=O)NC(C)(C)c2ccc(-c3ccc(S(=O)(=O)CC4CC4)cc3)cc2)CN2CCC1CC2 (stereo not shown) [Example 239, 1-(2-(4′-((Cyclopropylmethyl)sulfonyl)-[1,1′-biphenyl]-4-yl)propan-2-yl)-3-(3-ethylquinuclidin-3-yl)urea] | 9.87 | 1000 | 3.21 | 28.5 | ≥ 10000 |  |  |  |  |
| CC(C)(NC(=O)NC1(C)CN2CCC1CC2)c1ccc(-c2ccc(S(=O)(=O)CC3CC3)cc2)cc1 (stereo not shown) [Example 240, 1-(2-(4′-((Cyclopropylmethyl)sulfonyl)-[1,1′-biphenyl]-4-yl)propan-2-yl)-3-(3-methylquinuclidin-3-yl)urea] | 13.3 | 1000 | 5.97 | 86.5 | ≥ 10000 |  |  |  |  |
| CC(C)(NC(=O)OC1CCN2CCC1CC2)c1ccc(-c2ccc(S(=O)(=O)CC3CC3)cc2)cc1 (stereo not shown) [Example 241, 1-Azabicyclo[3.2.2]nonan-4-yl (2-(4′-((cyclopropylmethyl)sulfonyl)-[1,1′-biphenyl]-4-yl)propan-2-yl)carbamate] | 4.23 | 3160 | 1.44 | 12.2 | ≥ 10000 |  |  |  |  |
| COCCCS(=O)(=O)c1ccc(-c2ccc(C(C)(C)NC(=O)OC3CN4CCC3CC4)cc2)cc1 (stereo not shown) [Example 242, Quinuclidin-3-yl (2-(4′-((3-methoxypropyl)sulfonyl)-[1,1′-biphenyl]-4-yl)propan-2-yl)carbamate] | 32.5 |  |  |  |  | 3160 | 10.2 | 82.5 | ≥ 10000 |
| CCC1(NC(=O)NC(C)(C)c2ccc(-c3ccc(S(=O)(=O)CCCOC)cc3)cc2)CN2CCC1CC2 (stereo not shown) [Example 243, 1-(3-Ethylquinuclidin-3-yl)-3-(2-(4′-((3-methoxypropyl)sulfonyl)-[1,1′-biphenyl]-4-yl)propan-2-yl)urea] | 32.8 | 3160 | 7.49 | 57.3 | ≥ 10000 |  |  |  |  |
| CCCC1(NC(=O)NC(C)(C)c2ccc(-c3ccc(S(=O)(=O)CCCOC)cc3)cc2)CN2CCC1CC2 (stereo not shown) [Example 244, 1-(2-(4′-((3-Methoxypropyl)sulfonyl)-[1,1′-biphenyl]-4-yl)propan-2-yl)-3-(3-propylquinuclidin-3-yl)urea] | 37.1 | 3160 | 6.99 | 34.1 | ≥ 10000 |  |  |  |  |
| CC(C)(C)CCS(=O)(=O)c1ccc(-c2ccc(C(C)(C)NC(=O)OC3CN4CCC3CC4)cc2)cc1 (stereo not shown) [Example 245, Quinuclidin-3-yl (2-(4′-((3,3-dimethylbutyl)sulfonyl)-[1,1′-biphenyl]-4-yl)propan-2-yl)carbamate] | 1.85 |  |  |  |  | 316 | 0.716 | 66.3 | 6740 |
| CC(C)(C)CCS(=O)(=O)c1ccc(-c2ccc(C(C)(C)NC(=O)NC3(C)CN4CCC3CC4)cc2)cc1 (stereo not shown) [Example 246, 1-(2-(4′-((3,3-Dimethylbutyl)sulfonyl)-[1,1′-biphenyl]-4-yl)propan-2-yl)-3-(3-methylquinuclidin-3-yl)urea] | 1.7 | 1000 | 0.624 | 11.4 | ≥ 10000 |  |  |  |  |
| CCC1(NC(=O)NC(C)(C)c2ccc(-c3ccc(S(=O)(=O)CCC(C)(C)C)cc3)cc2)CN2CCC1CC2 (stereo not shown) [Example 247, 1-(2-(4′-((3,3-Dimethylbutyl)sulfonyl)-[1,1′-biphenyl]-4-yl)propan-2-yl)-3-(3-ethylquinuclidin-3-yl)urea] | 1.66 | 1000 | 0.396 | 4.28 | 6640 |  |  |  |  |
| CC(C)(C)CCS(=O)(=O)c1ccc(-c2ccc(C(C)(C)NC(=O)NC3(C)CCN4CCC3CC4)cc2)cc1 (stereo not shown) [Example 248, 1-(2-(4′-((3,3-Dimethylbutyl)sulfonyl)-[1,1′-biphenyl]-4-yl)propan-2-yl)-3-(4-methyl-1-azabicyclo[3.2.2]nonan-4-yl)urea] | 0.804 | 1000 | 0.315 | 6.84 | 7730 |  |  |  |  |
| COCC1(CS(=O)(=O)c2ccc(-c3ccc(C(C)(C)NC(=O)OC4CN5CCC4CC5)cc3)cc2)CC1 (stereo not shown) [Example 249, Quinuclidin-3-yl (2-(4′-(((1-(methoxymethyl)cyclopropyl)methyl)sulfonyl)-[1,1′-biphenyl]-4-yl)propan-2-yl)carbamate] | 53.5 |  |  |  |  | 2150 | 5.82 | 247 | ≥ 10000 |
| CCC1(NC(=O)NC(C)(C)c2ccc(-c3ccc(S(=O)(=O)CC4(COC)CC4)cc3)cc2)CN2CCC1CC2 (stereo not shown) [Example 250, 1-(3-Ethylquinuclidin-3-yl)-3-(2-(4′-(((1-(methoxymethyl)cyclopropyl)methyl)sulfonyl)-[1,1′-biphenyl]-4-yl)propan-2-yl)urea] | 20.1 | 1000 | 4.41 | 84.5 | ≥ 10000 |  |  |  |  |
| CCCC1(NC(=O)NC(C)(C)c2ccc(-c3ccc(S(=O)(=O)CC4(COC)CC4)cc3)cc2)CN2CCC1CC2 (stereo not shown) [Example 251, 1-(2-(4′-(((1-(Methoxymethyl)cyclopropyl)methyl)sulfonyl)-[1,1′-biphenyl]-4-yl)propan-2-yl)-3-(3-propylquinuclidin-3-yl)urea] | 21 | 1000 | 5.01 | 47.5 | ≥ 10000 |  |  |  |  |
| CNC(=O)c1ccc(-c2ccc(C(C)(C)NC(=O)OC3CN4CCC3CC4)cc2)cc1 (stereo not shown) [Example 252, Quinuclidin-3-yl (2-(4′-(methylcarbamoyl)-[1,1′-biphenyl]-4-yl)propan-2-yl)carbamate] | 1840 |  |  |  |  | ≥ 10000 | 220 | 1500 | ≥ 10000 |
